Assay results taken from ChEMBL document CHEMBL1138452, “1-Sulfonylindazoles as potent and selective 5-HT6 ligands” (Bioorg Med Chem Lett, 2009).
Each block holds one molecule with its values, some of them ahead of it. Activity calls are given as the source filed them. No cut-off for these calls is given here.

Assays:
[1] = target: T1, 5-hydroxytryptamine receptor 6 (Homo sapiens, UniProt P50406); assay: Displacement of [3H]LSD from human cloned 5HT6 receptor expressed in human HeLa cells; type: cell-based
T1 sequence (P50406 whole entry): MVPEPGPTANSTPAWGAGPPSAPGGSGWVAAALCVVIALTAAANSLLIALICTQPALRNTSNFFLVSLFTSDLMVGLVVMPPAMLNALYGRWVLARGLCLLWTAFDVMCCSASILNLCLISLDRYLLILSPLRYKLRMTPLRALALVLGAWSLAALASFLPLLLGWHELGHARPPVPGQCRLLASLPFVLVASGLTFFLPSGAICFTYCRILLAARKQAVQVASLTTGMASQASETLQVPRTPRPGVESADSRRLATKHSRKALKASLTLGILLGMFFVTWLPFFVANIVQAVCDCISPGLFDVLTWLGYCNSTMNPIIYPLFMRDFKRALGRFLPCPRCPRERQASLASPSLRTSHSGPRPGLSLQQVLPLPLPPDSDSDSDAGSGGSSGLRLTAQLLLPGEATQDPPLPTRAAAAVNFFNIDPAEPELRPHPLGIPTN

[2] = target: T1, 5-hydroxytryptamine receptor 6; assay: Antagonist activity at human cloned 5HT6 receptor expressed in human HeLa cells assessed as blockage of 5-HT-stimulated cAMP formation; type: functional, cell-based
[3] = target: T1, 5-hydroxytryptamine receptor 6; assay: Agonist activity at human 5HT6 receptor expressed in CHOK1 cells assessed as increase in 5HT-induced intracellular calcium level at 0.1 to 10 uM by FLIPR assay; type: functional, cell-based; details: CHO-K1
[4] = Metabolic stability in human microsomes assessed as half life; type: ADME, Microsome
[5] = Metabolic stability in rat microsomes assessed as half life; type: ADME, Microsome
[6] = target: Cytochrome P450 3A4 (Homo sapiens, UniProt P08684); assay: Inhibition of CYP3A4; type: ADME
Chain of Cytochrome P450 3A4 (P08684 whole entry): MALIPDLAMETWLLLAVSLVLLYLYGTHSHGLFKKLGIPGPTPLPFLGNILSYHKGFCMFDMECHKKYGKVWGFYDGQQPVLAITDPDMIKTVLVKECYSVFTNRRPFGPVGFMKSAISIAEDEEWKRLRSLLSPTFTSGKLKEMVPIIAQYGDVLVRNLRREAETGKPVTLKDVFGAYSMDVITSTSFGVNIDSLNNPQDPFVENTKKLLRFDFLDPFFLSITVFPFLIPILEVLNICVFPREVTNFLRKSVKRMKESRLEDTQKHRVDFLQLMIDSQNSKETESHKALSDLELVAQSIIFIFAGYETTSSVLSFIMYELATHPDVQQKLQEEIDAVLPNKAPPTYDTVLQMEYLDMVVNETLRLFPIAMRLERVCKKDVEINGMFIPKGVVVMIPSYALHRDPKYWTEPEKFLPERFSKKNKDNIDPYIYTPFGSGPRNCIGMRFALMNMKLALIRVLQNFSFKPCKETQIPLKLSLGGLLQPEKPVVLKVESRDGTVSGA

[7] = target: Cytochrome P450 2D6 (Homo sapiens, UniProt P10635); assay: Inhibition of CYP2D6; type: ADME
Chain of Cytochrome P450 2D6 (P10635 whole entry): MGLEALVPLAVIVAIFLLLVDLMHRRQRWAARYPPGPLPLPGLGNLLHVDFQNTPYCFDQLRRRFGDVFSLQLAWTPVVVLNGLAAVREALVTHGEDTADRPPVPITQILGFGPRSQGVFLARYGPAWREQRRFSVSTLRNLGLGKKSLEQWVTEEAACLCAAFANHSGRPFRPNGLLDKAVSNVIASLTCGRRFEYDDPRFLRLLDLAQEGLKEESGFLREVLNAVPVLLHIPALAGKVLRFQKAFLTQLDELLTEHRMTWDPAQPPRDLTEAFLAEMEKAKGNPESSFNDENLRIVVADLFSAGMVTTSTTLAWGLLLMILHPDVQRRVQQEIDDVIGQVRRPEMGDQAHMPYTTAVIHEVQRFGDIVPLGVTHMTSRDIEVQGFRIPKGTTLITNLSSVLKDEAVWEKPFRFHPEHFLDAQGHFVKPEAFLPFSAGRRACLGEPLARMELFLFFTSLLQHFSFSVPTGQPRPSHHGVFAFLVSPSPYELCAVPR

[8] = target: Cytochrome P450 2C9 (Homo sapiens, UniProt P11712); assay: Inhibition of CYP2C9; type: ADME
Chain of Cytochrome P450 2C9 (P11712 whole entry): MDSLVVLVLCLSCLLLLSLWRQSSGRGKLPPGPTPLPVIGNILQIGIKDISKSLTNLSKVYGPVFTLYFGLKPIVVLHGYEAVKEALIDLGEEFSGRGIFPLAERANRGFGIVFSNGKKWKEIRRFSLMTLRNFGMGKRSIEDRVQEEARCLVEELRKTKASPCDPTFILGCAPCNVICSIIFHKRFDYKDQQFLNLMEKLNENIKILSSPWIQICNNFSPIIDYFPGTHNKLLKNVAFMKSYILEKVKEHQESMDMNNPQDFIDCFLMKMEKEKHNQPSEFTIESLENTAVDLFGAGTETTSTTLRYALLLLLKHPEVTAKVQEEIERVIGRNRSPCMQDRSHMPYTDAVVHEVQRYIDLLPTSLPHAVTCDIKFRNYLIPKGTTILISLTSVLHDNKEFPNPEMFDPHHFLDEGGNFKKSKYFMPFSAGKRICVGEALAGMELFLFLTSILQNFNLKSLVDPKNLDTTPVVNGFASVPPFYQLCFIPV

[9] = Oral bioavailability in Sprague-Dawley rat at 10 mg/kg; type: ADME, organism-based; details: in vivo
[10] = test system: Rattus norvegicus; assay: Cognitive enhancing effect in Sprague-Dawley rat assessed as reversal of 24 hrs delay-induced retention deficit behavior at 10 mg/kp, po by novel object recognition assay; type: functional, organism-based
[11] = target: T2, 5-hydroxytryptamine receptor 1A (Homo sapiens, UniProt P08908); assay: Binding affinity to 5HT1a receptor
T2 sequence (P08908 whole entry): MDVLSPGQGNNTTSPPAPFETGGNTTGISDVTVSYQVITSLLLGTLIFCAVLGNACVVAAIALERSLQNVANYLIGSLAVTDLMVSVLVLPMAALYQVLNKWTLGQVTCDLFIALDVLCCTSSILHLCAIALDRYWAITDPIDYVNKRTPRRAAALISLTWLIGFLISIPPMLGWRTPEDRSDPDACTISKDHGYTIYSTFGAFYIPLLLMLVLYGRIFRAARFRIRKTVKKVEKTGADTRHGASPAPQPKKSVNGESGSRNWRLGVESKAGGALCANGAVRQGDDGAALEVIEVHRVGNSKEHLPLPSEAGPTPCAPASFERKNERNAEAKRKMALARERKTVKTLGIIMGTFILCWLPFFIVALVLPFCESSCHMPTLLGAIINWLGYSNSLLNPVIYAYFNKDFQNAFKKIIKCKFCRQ

[12] = target: 5-hydroxytryptamine receptor 1B (Homo sapiens, UniProt P28222); assay: Binding affinity to 5HT1b receptor
Chain of 5-hydroxytryptamine receptor 1B (P28222 whole entry): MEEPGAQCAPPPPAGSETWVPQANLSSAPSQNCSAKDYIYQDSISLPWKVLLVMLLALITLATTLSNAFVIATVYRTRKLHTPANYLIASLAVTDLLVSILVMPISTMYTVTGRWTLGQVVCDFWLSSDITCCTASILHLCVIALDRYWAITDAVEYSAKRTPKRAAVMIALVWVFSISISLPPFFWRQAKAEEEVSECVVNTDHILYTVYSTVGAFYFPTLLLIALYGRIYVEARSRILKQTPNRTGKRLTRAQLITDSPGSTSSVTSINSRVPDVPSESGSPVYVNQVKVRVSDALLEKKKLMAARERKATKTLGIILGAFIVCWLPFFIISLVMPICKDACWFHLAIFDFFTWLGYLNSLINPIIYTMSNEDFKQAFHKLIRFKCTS

[13] = target: 5-hydroxytryptamine receptor 1D (Homo sapiens, UniProt P28221); assay: Binding affinity to 5HT1d receptor
Chain of 5-hydroxytryptamine receptor 1D (P28221 whole entry): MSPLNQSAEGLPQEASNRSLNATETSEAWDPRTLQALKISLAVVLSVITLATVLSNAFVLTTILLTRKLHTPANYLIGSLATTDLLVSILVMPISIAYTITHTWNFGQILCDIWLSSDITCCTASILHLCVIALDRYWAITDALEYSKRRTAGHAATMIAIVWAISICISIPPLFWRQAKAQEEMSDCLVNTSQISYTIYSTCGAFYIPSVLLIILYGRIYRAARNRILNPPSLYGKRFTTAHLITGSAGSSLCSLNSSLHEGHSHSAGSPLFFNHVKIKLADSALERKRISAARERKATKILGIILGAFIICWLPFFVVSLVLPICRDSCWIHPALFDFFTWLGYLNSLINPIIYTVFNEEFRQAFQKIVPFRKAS

[14] = target: 5-hydroxytryptamine receptor 2B (Homo sapiens, UniProt P41595); assay: Binding affinity to 5HT2b receptor
Chain of 5-hydroxytryptamine receptor 2B (P41595 whole entry): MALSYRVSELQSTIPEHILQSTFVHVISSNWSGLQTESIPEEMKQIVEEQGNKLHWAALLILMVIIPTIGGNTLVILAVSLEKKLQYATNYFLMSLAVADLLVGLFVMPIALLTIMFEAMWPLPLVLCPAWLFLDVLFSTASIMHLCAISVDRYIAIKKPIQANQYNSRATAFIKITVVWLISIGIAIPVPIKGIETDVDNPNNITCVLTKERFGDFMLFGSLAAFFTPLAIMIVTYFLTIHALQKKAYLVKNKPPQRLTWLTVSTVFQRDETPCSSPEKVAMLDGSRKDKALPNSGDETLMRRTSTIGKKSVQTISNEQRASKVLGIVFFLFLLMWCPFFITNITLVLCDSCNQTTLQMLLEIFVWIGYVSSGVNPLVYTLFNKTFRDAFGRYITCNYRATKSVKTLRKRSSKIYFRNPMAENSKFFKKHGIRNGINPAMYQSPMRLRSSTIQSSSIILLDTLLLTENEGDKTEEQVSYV

[15] = target: T3, 5-hydroxytryptamine receptor 2C (Homo sapiens, UniProt P28335); assay: Binding affinity to 5HT2c receptor
T3 sequence (P28335 whole entry): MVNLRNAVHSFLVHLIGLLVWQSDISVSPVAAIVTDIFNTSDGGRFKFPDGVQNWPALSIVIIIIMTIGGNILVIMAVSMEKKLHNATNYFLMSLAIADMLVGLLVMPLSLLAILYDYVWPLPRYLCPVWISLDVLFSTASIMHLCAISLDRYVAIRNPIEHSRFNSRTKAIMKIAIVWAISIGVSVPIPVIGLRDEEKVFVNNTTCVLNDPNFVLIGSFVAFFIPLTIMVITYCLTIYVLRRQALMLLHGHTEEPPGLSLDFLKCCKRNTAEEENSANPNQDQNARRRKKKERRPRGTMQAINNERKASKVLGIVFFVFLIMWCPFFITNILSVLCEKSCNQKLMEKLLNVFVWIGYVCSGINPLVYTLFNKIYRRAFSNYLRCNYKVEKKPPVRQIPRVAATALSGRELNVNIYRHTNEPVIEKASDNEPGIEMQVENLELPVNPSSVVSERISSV

[16] = target: 5-hydroxytryptamine receptor 7 (Homo sapiens, UniProt P34969); assay: Binding affinity to 5HT7 receptor
Chain of 5-hydroxytryptamine receptor 7 (P34969 whole entry): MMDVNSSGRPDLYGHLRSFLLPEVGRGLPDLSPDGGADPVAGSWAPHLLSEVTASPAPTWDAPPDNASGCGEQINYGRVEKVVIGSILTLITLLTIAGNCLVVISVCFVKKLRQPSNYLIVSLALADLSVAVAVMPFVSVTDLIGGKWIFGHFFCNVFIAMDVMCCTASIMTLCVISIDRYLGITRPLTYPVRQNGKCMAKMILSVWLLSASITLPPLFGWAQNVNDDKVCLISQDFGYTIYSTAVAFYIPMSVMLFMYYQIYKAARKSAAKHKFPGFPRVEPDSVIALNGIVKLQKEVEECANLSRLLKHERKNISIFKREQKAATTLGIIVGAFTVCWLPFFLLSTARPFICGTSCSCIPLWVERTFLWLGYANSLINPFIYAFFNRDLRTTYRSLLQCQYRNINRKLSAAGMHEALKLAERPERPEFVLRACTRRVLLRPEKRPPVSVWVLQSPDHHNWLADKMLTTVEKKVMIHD

[17] = target: T4, Alpha-2A adrenergic receptor (Homo sapiens, UniProt P08913); assay: Binding affinity to adrenergic alpha2A receptor
T4 sequence (P08913 whole entry): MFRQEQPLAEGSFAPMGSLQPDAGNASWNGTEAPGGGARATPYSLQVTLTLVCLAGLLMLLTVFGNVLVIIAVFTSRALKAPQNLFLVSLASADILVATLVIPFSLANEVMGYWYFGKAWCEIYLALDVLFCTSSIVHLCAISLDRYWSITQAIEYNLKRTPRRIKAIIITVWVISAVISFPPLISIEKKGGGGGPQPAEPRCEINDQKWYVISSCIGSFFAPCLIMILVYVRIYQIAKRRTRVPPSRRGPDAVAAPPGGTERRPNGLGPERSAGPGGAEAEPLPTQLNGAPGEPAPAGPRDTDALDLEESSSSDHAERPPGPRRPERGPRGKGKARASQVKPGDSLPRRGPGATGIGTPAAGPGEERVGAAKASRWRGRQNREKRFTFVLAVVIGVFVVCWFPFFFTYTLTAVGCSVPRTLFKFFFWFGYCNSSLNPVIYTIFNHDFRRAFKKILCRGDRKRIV

[18] = target: D(2) dopamine receptor (Homo sapiens, UniProt P14416); assay: Binding affinity to dopamine D2 receptor
Chain of D(2) dopamine receptor (P14416 whole entry): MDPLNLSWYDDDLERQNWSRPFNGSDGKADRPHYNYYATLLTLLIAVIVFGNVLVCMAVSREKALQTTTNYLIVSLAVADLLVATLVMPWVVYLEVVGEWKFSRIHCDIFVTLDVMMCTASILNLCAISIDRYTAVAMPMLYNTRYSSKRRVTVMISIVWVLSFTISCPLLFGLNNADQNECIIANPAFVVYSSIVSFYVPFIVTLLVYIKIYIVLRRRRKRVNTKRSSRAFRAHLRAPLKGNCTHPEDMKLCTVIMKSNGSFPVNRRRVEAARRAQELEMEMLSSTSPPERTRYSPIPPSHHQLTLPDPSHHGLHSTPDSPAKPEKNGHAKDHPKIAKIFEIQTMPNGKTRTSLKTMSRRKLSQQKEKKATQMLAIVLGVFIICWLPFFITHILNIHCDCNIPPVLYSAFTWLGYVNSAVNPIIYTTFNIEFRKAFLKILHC

Activity [3]: inactive | half-life [4]: > 30 min | half-life [5]: 8 min | IC50 [6]: 260000 nM | IC50 [7]: 110000 nM | IC50 [8]: 140000 nM | bioavailability [9]: 24% | Ki [1]: 1.3 nM | IC50 [2]: 10 nM | Imax [2]: 100% | Ki [11]: 5600 nM | Ki [12]: 1800 nM | Ki [13]: > 2000 nM | Ki [14]: 174 nM | Ki [15]: > 2000 nM | Ki [16]: 5800 nM | Ki [17]: > 2000 nM | Ki [18]: > 2000 nM
SMILES: O=C(Nc1ccc2cnn(S(=O)(=O)c3cccc4ccccc34)c2c1)C1CCCNC1 (racemic)
Activity [10]: Active

IC50 [2]: 53 nM | Imax [2]: 100%
SMILES: CN(C)CCC(=O)Nc1ccc2cnn(S(=O)(=O)c3cccc4ccccc34)c2c1

IC50 [2]: 170 nM | Imax [2]: 100%
SMILES: O=C(CCN1CCCCC1)Nc1ccc2cnn(S(=O)(=O)c3cccc4ccccc34)c2c1

Ki [1]: 3.2 nM | Activity [2]: Active
SMILES: O=C(Nc1ccc2cnn(S(=O)(=O)c3cccc4ccccc34)c2c1)[C@H]1CCCNC1

IC50 [2]: 260 nM | Imax [2]: 100%
SMILES: CCN(CC)CCC(=O)Nc1ccc2cnn(S(=O)(=O)c3cccc4ccccc34)c2c1

Continued, molecule first:

SMILES: O=S(=O)(c1cccc2ccccc12)n1ncc2ccc(NCC3CCNCC3)cc21
Ki [1]: 18 nM

SMILES: O=C(Nc1ccc2cnn(S(=O)(=O)c3cccc4ccccc34)c2c1)[C@@H]1CCCNC1
Ki [1]: 4 nM | Activity [2]: Active

SMILES: NCCC(=O)Nc1cccc2c1cnn2S(=O)(=O)c1cccc2ccccc12
half-life [4]: > 30 min | half-life [5]: 28 min | IC50 [6]: 30000 nM | IC50 [7]: 200000 nM | IC50 [8]: 7000 nM | bioavailability [9]: 7% | IC50 [2]: 11 nM | Imax [2]: 100% | Ki [11]: 6400 nM | Ki [12]: > 2000 nM | Ki [13]: > 2000 nM | Ki [14]: 155 nM | Ki [15]: > 2000 nM | Ki [16]: 5100 nM | Ki [17]: > 2000 nM | Ki [18]: > 2000 nM

SMILES: O=C(Nc1ccc2cnn(S(=O)(=O)c3cccc4ccccc34)c2c1)C1CCNCC1
Activity [3]: inactive | half-life [4]: > 30 min | half-life [5]: 11 min | IC50 [6]: 61000 nM | IC50 [7]: 350000 nM | IC50 [8]: 370000 nM | bioavailability [9]: 5% | IC50 [2]: 8 nM | Imax [2]: 100% | Ki [11]: 8500 nM | Ki [12]: > 2000 nM | Ki [13]: > 2000 nM | Ki [14]: 130 nM | Ki [15]: > 2000 nM | Ki [16]: 6900 nM | Ki [17]: > 2000 nM | Ki [18]: > 2000 nM

SMILES: NCCC(=O)Nc1ccc2cnn(S(=O)(=O)c3cccc4ccccc34)c2c1
Activity [3]: inactive

SMILES: CNCCC(=O)Nc1ccc2cnn(S(=O)(=O)c3cccc4ccccc34)c2c1
IC50 [2]: 26 nM | Imax [2]: 100%
